# Values quoted from earlier work in patent US8709164B2, “Methods and compositions for dislodging debris particles from a substrate” (University of South Carolina, priority 2010, dated 2014).
# How the values were obtained:
# D. farinae = conditions: among 15 chemicals
# D. pteronyssinus = conditions: washing soak with addition of 0.03% benzyl benzoate
Structure (SMILES),"ability to kill D. farinae (words, order of potency) (D. farinae)","mites survived out of 10,000 (D. pteronyssinus)"
Cl[C@H]1[C@H](Cl)[C@@H](Cl)[C@@H](Cl)[C@H](Cl)[C@H]1Cl [Lindane],most effective,
O=C(OCc1ccccc1)c1ccccc1 [benzyl benzoate],most effective,approximately 50
CCN(CC)c1nc(C)cc(OP(=S)(OC)OC)n1 [pirimiphosmethyl],most effective,
